From patent US8604023B2, “1,4-benzodiazepinone compounds and their use in treating cancer” (The Regents of the University of Michigan, priority 2009, dated 2013)
pEC50: −log10 of the molar value.

Experiments:
Ramos cells = assay: cytotoxicity in Ramos cells; type: cell-based; details: Homo sapiens
Method: The compounds listed in Table 5 were tested for cytotoxicity in Ramos cells. The assay was conducted as described in K. M. Johnson et al. Chemistry & Biology 2005, 12, 485-496.

A549/ATCC = assay: cancer cell growth inhibition (SRB); type: cell-based, human; details: Non-Small Cell Lung Cancer
EKVX = assay: cancer cell growth inhibition (SRB); type: cell-based, human; details: Non-Small Cell Lung Cancer
HOP-62 = assay: cancer cell growth inhibition (SRB); type: cell-based, human; details: Non-Small Cell Lung Cancer
HOP-92 = assay: cancer cell growth inhibition (SRB); type: cell-based, human; details: Non-Small Cell Lung Cancer
NCI-H226 = assay: cancer cell growth inhibition (SRB); type: cell-based, human; details: Non-Small Cell Lung Cancer
NCI-H23 = assay: cancer cell growth inhibition (SRB); type: cell-based, human; details: Non-Small Cell Lung Cancer
NCI-H322M = assay: cancer cell growth inhibition (SRB); type: cell-based, human; details: Non-Small Cell Lung Cancer
NCI-H460 = assay: cancer cell growth inhibition (SRB); type: cell-based, human; details: Non-Small Cell Lung Cancer
NCI-H522 = assay: cancer cell growth inhibition (SRB); type: cell-based, human; details: Non-Small Cell Lung Cancer
COLO 205 = assay: cancer cell growth inhibition (SRB); type: cell-based, human; details: Colon Cancer
HCC-2998 = assay: cancer cell growth inhibition (SRB); type: cell-based, human; details: Colon Cancer
HCT-116 = assay: cancer cell growth inhibition (SRB); type: cell-based, human; details: Colon Cancer
HCT-15 = assay: cancer cell growth inhibition (SRB); type: cell-based, human; details: Colon Cancer
HT29 = assay: cancer cell growth inhibition (SRB); type: cell-based, human; details: Colon Cancer
KM12 = assay: cancer cell growth inhibition (SRB); type: cell-based, human; details: Colon Cancer
SW-620 = assay: cancer cell growth inhibition (SRB); type: cell-based, human; details: Colon Cancer
BT-549 = assay: cancer cell growth inhibition (SRB); type: cell-based, human; details: Breast Cancer
HS 578T = assay: cancer cell growth inhibition (SRB); type: cell-based, human; details: Breast Cancer
MCF7 = assay: cancer cell growth inhibition (SRB); type: cell-based, human; details: Breast Cancer
MDA-MB-231/ATCC = assay: cancer cell growth inhibition (SRB); type: cell-based, human; details: Breast Cancer
MDA-MB-435 = assay: cancer cell growth inhibition (SRB); type: cell-based, human; details: Breast Cancer
NCI/ADR-RES = assay: cancer cell growth inhibition (SRB); type: cell-based, human; details: Breast Cancer
T-47D = assay: cancer cell growth inhibition (SRB); type: cell-based, human; details: Breast Cancer
IGROV1 = assay: cancer cell growth inhibition (SRB); type: cell-based, human; details: Ovarian Cancer
OVCAR-3 = assay: cancer cell growth inhibition (SRB); type: cell-based, human; details: Ovarian Cancer
OVCAR-4 = assay: cancer cell growth inhibition (SRB); type: cell-based, human; details: Ovarian Cancer
OVCAR-5 = assay: cancer cell growth inhibition (SRB); type: cell-based, human; details: Ovarian Cancer
OVCAR-8 = assay: cancer cell growth inhibition (SRB); type: cell-based, human; details: Ovarian Cancer
SK-OV-3 = assay: cancer cell growth inhibition (SRB); type: cell-based, human; details: Ovarian Cancer

O=C1Nc2ccc(Cl)cc2C(c2ccc(N3CCNCC3)nc2)=NC1Cc1ccccc1Cl (stereo not drawn) [Compound V-23]
pEC50 (Ramos cells): ≥ 5.30 | growth inhibition of the cancer cells (A549/ATCC): +++ (at least 75% growth inhibition of the cancer cells) | growth inhibition of the cancer cells (EKVX): +++ (at least 75% growth inhibition of the cancer cells) | growth inhibition of the cancer cells (HOP-62): +++ (at least 75% growth inhibition of the cancer cells) | growth inhibition of the cancer cells (HOP-92): ++ (40%-75% growth inhibition of the cancer cells) | growth inhibition of the cancer cells (NCI-H226): + (less than 40% growth inhibition of the cancer cells) | growth inhibition of the cancer cells (NCI-H23): ++ (40%-75% growth inhibition of the cancer cells) | growth inhibition of the cancer cells (NCI-H322M): + (less than 40% growth inhibition of the cancer cells) | growth inhibition of the cancer cells (NCI-H460): +++ (at least 75% growth inhibition of the cancer cells) | growth inhibition of the cancer cells (NCI-H522): +++ (at least 75% growth inhibition of the cancer cells) | growth inhibition of the cancer cells (COLO 205): ++ (40%-75% growth inhibition of the cancer cells) | growth inhibition of the cancer cells (HCC-2998): +++ (at least 75% growth inhibition of the cancer cells) | growth inhibition of the cancer cells (HCT-116): +++ (at least 75% growth inhibition of the cancer cells) | growth inhibition of the cancer cells (HCT-15): +++ (at least 75% growth inhibition of the cancer cells) | growth inhibition of the cancer cells (HT29): +++ (at least 75% growth inhibition of the cancer cells) | growth inhibition of the cancer cells (KM12): +++ (at least 75% growth inhibition of the cancer cells) | growth inhibition of the cancer cells (SW-620): +++ (at least 75% growth inhibition of the cancer cells) | growth inhibition of the cancer cells (BT-549): +++ (at least 75% growth inhibition of the cancer cells) | growth inhibition of the cancer cells (HS 578T): ++ (40%-75% growth inhibition of the cancer cells) | growth inhibition of the cancer cells (MCF7): +++ (at least 75% growth inhibition of the cancer cells) | growth inhibition of the cancer cells (MDA-MB-231/ATCC): +++ (at least 75% growth inhibition of the cancer cells) | growth inhibition of the cancer cells (MDA-MB-435): +++ (at least 75% growth inhibition of the cancer cells) | growth inhibition of the cancer cells (NCI/ADR-RES): + (less than 40% growth inhibition of the cancer cells) | growth inhibition of the cancer cells (T-47D): ++ (40%-75% growth inhibition of the cancer cells) | growth inhibition of the cancer cells (IGROV1): +++ (at least 75% growth inhibition of the cancer cells) | growth inhibition of the cancer cells (OVCAR-3): +++ (at least 75% growth inhibition of the cancer cells) | growth inhibition of the cancer cells (OVCAR-4): ++ (40%-75% growth inhibition of the cancer cells) | growth inhibition of the cancer cells (OVCAR-5): +++ (at least 75% growth inhibition of the cancer cells) | growth inhibition of the cancer cells (OVCAR-8): ++ (40%-75% growth inhibition of the cancer cells) | growth inhibition of the cancer cells (SK-OV-3): ++ (40%-75% growth inhibition of the cancer cells)
